The test system of assay [1] is IFN-γ. The assay can be described thus: IFN-γ mRNA expression in Jurkat cells by qRT-PCR, normalized with GAPDH. The class given is cell-based, human. As for the experimental part:
(§1) FIG. 1. Interferon gamma (IFN-γ) and interleukin (IL)-2 expression in human Jurkat cells following exposure to TRIP in vitro. Jurkat cells (2×10^6) were treated with different concentrations of TRIP as indicated for 24 hours. (A) IFN-γ and (B) IL-2 mRNA expression levels were detected by quantitative real-time polymerase chain reaction (qRT-PCR) and normalized with the expression of GAPDH. *p<0.05, **p<0.01, ***p<0.001.
FIG. 2. Effect of tamoxifen on TRIP-induced expression of IFN-γ in vitro. Jurkat cells (2×10^6) were treated with TRIP (2.5 μM) and/or tamoxifen (2.5 μM) for 24 hours. The expression levels of IFN-γ were analyzed by qRT-PCR and normalized with GAPDH. **p<0.01, ***p<0.005.
(§2) FIG. 3. Effects of TRIP alone and in combination with trifluoperazine (TFP) or LY294002 (LY) on IFN-γ and IL-2 in human Jurkat cells in vitro. Jurkat cells (2×10^6) were pretreated with different concentrations of (A, B) TFP (0, 0.1, 1.0, 5.0, and 10.0 μM) and (C, D) LY294002 (0, 1, 5, 10, and 25 μM) for 1 hour, then incubated with medium containing 2.5 μM of TRIP for 24 hours. (A, C) IFN-γ and (B, D) IL-2 mRNA expression levels were detected by qRT-PCR and normalized with the expression of GAPDH. *p<0.05, **p<0.01, ***p<0.001.
(§3) FIG. 4. Effects of calmodulin, PI3K and MAPK inhibition on TRIP-induced expression of IFN-γ and IL-2 in human Jurkat cells in vitro. Jurkat cells (2×10^6) were pretreated with PD98059 (50 μM), TFP (10 μM) and LY294002 (25 μM) for 1 hour, then incubated with medium containing 2.5 μM of TRIP for 24 hours. (A) IFN-γ and (B) IL-2 mRNA expression levels were detected by qRT-PCR and normalized with the expression of GAPDH. **p<0.01, ***p<0.001, ****p<0.0001.
(§4) The potential immune regulating effects of TRIP and the possible mechanism(s) involved were determined with in vitro experiments examining the expression of T cell activating cytokines in human acute T cell leukemia Jurkat cells. The expression of IFN-γ and IL-2 RNA following exposure to increasing concentrations of TRIP (i.e., ospemifene) were first examined, followed by the effects of combining tamoxifen with TRIP on the expression of these cytokines. Different inhibitors of key T cell activation pathways—trifluoperazine (TFP), an inhibitor of calmodulin, LY294002, an inhibitor of PI3K, and PD98059, a MAPK inhibitor—in combination with TRIP were assessed for their effects on TRIP-induced expression of IFN-γ and IL-2 in Jurkat cells.
(§5) Jurkat cells (2.0×10^6) were treated with different concentrations of TRIP as indicated on the x-axis for 24 hours. (A) IFN-γ and (B) IL-2 mRNA expression levels were detected by quantitative real-time polymerase chain reaction (qRT-PCR) and normalized with the expression of GAPDH. *p<0.05, **p<0.01, ***p<0.001.
The expression levels of IFN-γ were analyzed by qRT-PCR and normalized with GAPDH. **p<0.01, ***p<0.001.
(§6) T cell activation requires multiple signals including PI3K, MAPK and calcium signaling pathways, and in order to identify the potential mechanism through which TRIP affects immune activation, Jurkat cells (2.0×10^6) were pretreated with different concentrations of TFP (0, 0.1, 1.0, 5.0 and 10.0 μM) (A, B) or LY294002 (0, 1, 5, 10 and 25 μM) (C, D) for one hour, then incubated with medium containing 2.5 μM TRIP for 24 hours. IFN-γ and IL-2 expression levels were detected by qRT-PCR and normalized with the expression of GAPDH. *p<0.05, **p<0.01, ***p<0.001.
(§7) Jurkat cells (2×10^6) were pretreated with PD98059 (50 μM), TFP (10 μM) or LY294002 (25 μM) for one hour, then incubated with medium containing 2.5 μM TRIP for 24 hours. (A) IFN-γ and (B) IL-2 mRNA expression levels were detected by qRT-PCR and normalized with expression of GAPDH. **p<0.01, ***p<0.001, ****p<0.0001.
The effects on T cell activation of different functional group substitutions on the TRIP chemical structure (Formula Ia) were examined by measuring the expression of IFN-γ and IL-2 RNA in human acute T cell leukemia Jurkat cells in vitro. […]

The test system of the next assay is IL-2. The assay can be described thus: IL-2 mRNA expression in Jurkat cells by qRT-PCR, normalized with GAPDH. The assay is classed as cell-based, human. As for the experimental part:
as §1, §2, §3, §4, §5, §6, §7
The effects on T cell activation of different functional group substitutions on the TRIP chemical structure (Formula Ia) were examined by measuring the expression of IFN-γ and IL-2 RNA in human acute T cell leukemia Jurkat cells in vitro.
A strong increase is defined as a ≥50% increase compared to the control. A moderate increase is defined as a 25-49% increase compared to the control. A weak increase is defined as a 0-24% increase compared to the control. No effect is when there was no increase compared to the control.

Assay [2] concerns T-cell surface markers (CD4, CD8, PD-1, CD28). The assay can be described thus: Experiment 5: T-cell surface markers of spleen lymphocytes by flow cytometry. The class given is in vivo, human MUC1.Tg C57BL/6 mice. As for the experimental part: FIG. 11. Lymphocyte phenotypes following different hormonal treatments. (A) CD3+CD4+; (B) CD3+CD8+; (C) CD3+CD28+; (D) CD8+CD28+; (E) CD3+PD-1+; and (F) CD8+PD-1+; T cell surface markers were stained with indicated antibodies after […] of TRIP (100 mg/kg), estradiol (E2; 25 μg/kg), and letrozole (0.8 mg/kg) treatments (n=8 all groups).
(§8) A total of 32 female human MUC1.Tg C57BL/6 mice, starting at approximately six weeks of age, were treated with urethane as described (Wurz G T. et al., J. Transl. Med., 11:64 (2013)). Two weeks following the final dose of urethane (Week 17), the mice were randomized into four treatment groups of approximately equal average weight (n=8, all groups): Control (no treatment); TRIP (i.e., ospemifene) 100 mg/kg; estradiol 25 μg/kg; and letrozole 0.8 mg/kg. TRIP and letrozole were prepared in DMSO and peanut oil as described above in Experiment 2 and administered daily for 14 days by oral gavage (100 μL). Estradiol was dissolved in 100% ethanol, diluted in PBS to achieve the desired concentration, and then administered daily for 14 days by s.c. injection at rotating sites using a 25-gauge needle. In Week 19, the study was terminated, 24 hours after the last treatments, and serum and spleens were collected for surface marker and Treg analyses.
(§9) After two weeks of treatment, lymphocytes were isolated from spleen. T-cell surface markers (CD4, CD8, PD-1, CD28) and regulatory T cells (Tregs) were analyzed by flow cytometry.

For assay [3], the system named is IFN-γ. The assay can be described thus: Experiment 5: serum IFN-γ cytokine analysis. The assay is classed as in vivo, human MUC1.Tg C57BL/6 mice. The following applies: TRIP 100 mg/kg or letrozole 0.8 mg/kg daily oral 14 days. As for the experimental part: FIG. 13. Effects of TRIP on serum IFN-γ compared to estradiol and letrozole. Serum IFN-γ from untreated control, TRIP (100 mg/kg), estradiol (E2; 25 μg/kg), and letrozole (0.8 mg/kg) groups were analyzed following daily treatment for 14 days (n=8 all groups). **p<0.01, ***p<0.001.
TRIP and letrozole were prepared in DMSO and peanut oil as described above in Experiment 2 and administered daily for 14 days by oral gavage (100 μL). Estradiol was dissolved in 100% ethanol, diluted in PBS to achieve the desired concentration, and then administered daily for 14 days by s.c. injection at rotating sites using a 25-gauge needle. In Week 19, the study was terminated, 24 hours after the last treatments, and serum and spleens were collected for surface marker and Treg analyses.

Assay [4] has as its system regulatory T cells (Tregs). Description: Experiment 5: regulatory T cells (FoxP3+/CD4+) by flow cytometry. The assay is classed as in vivo, human MUC1.Tg C57BL/6 mice. The following applies: TRIP 100 mg/kg or letrozole 0.8 mg/kg daily oral 14 days. As for the experimental part:
as §8, §9
In general terms: In flow cytometry, cells or beads pass a laser one at a time.

Setting [5] is: Jurkat cells pretreated 1 hour with PD98059 50 μM, TFP 10 μM or LY294002 25 μM, then 2.5 μM TRIP 24 hours (FIG. 4).
Where [6] appears, read: Jurkat cells pretreated 1 hour with TFP 0.1-10.0 μM or LY294002 1-25 μM, then 2.5 μM TRIP 24 hours (FIG. 3).
[7] abbreviates: mRNA in Jurkat cells in vitro, relative to control sample without TRIP compound.

Results on five compounds are retold here after US10154970B2, “Methods for immunomodulation of cancer and infectious disease therapy” (The Regents of the University of California, priority 2014, dated 2018).

SMILES strings stand for the structures.

For `COc1cccc(-c2cc(=O)c3ccccc3o2)c1N` [PD98059, reference compound], in the assay on IFN-γ [1] (setting [5]), the “TRIP-induced expression of IFN-γ” value is reported as “did not appear to affect”. Moreover, the “TRIP-induced expression of IL-2” value in the assay on IL-2 (setting [5]) is “did not appear to affect”.
Consider `CN1CCN(CCCN2c3ccccc3Sc3ccc(C(F)(F)F)cc32)CC1` [TFP, trifluoperazine, reference compound], for which the “TRIP-induced expression of IFN-γ” value with IFN-γ [1] (setting [5]) and with IFN-γ [1] (setting [6]) was “significantly decreased” throughout. The “TRIP-induced expression of IL-2” value in the assay on IL-2 (setting [5]) and in the assay on IL-2 (setting [6]) was “significantly decreased” in each case.
With `OCCOCCOc1ccc(/C(=C(/CCCl)c2ccccc2)c2ccccc2)cc1` [Z-2-{2-[4-(4-chloro-1,2-diphenyl-but-1-enyl)-phenoxy]-ethoxy}-ethanol], the “IFN-γ Expression” value in the assay with IFN-γ [1] (setting [7]) was “+++ (strong increase)”. In addition, the “IL-2 Expression” value in the assay with IL-2 (setting [7]) is on record as “+++ (strong increase)”.
In the case of `N#Cc1ccc(C(c2ccc(C#N)cc2)n2cncn2)cc1` [letrozole, reference compound], the “expression of surface markers, including CD8 and CD28, vs control” value in assay [2] (TRIP 100 mg/kg or letrozole 0.8 mg/kg daily oral 14 days) is reported as “no difference”. The “CD4+ T cell population” value in assay [2] (letrozole 0.8 mg/kg daily oral 14 days) is on record as “lower”. Besides, the “serum IFN-γ concentrations compared to estradiol” value in the assay with IFN-γ [3] is on record as “significantly increased”. For the same compound, the “Tregs (FoxP3+/CD4+) compared to estradiol treatment” value in assay [4] is “significantly inhibited”.
Turning to `CC/C(=C(\c1ccccc1)c1ccc(OCCN(C)C)cc1)c1ccccc1` [tamoxifen, reference compound], the “expression of IFN-γ compared to control” value in the assay with IFN-γ [1] (Jurkat cells, single agent 2.5 μM, 24 hours (FIG. 2)) is “no apparent effect”. Also, the “effect on the T cell activating ability of TRIP (IFN-γ expression)” value with IFN-γ [1] (Jurkat cells, tamoxifen 2.5 μM with TRIP 2.5 μM, 24 hours) was “does not affect”.
